# Test results from patent publication US20100183600A1, “RAF Inhibitors and Their Uses” (ARQULE, INC., priority 2008, published 2010).
# Read-outs that look alike come from different tables or passages of the source.
# Assays:
# mutant B-RAF = target: T1, mutant B-RAF (Homo sapiens, UniProt P15056, V600E); test: Measurement of RAF activity (MEK-1 phosphorylation); type: biochemical; details: for increase in IC50 relative to compound 14: mutant B-RAF
# T1 construct: purchased Upstate (Charlottesville, Va.)
# T1 sequence (P15056 whole entry V600E): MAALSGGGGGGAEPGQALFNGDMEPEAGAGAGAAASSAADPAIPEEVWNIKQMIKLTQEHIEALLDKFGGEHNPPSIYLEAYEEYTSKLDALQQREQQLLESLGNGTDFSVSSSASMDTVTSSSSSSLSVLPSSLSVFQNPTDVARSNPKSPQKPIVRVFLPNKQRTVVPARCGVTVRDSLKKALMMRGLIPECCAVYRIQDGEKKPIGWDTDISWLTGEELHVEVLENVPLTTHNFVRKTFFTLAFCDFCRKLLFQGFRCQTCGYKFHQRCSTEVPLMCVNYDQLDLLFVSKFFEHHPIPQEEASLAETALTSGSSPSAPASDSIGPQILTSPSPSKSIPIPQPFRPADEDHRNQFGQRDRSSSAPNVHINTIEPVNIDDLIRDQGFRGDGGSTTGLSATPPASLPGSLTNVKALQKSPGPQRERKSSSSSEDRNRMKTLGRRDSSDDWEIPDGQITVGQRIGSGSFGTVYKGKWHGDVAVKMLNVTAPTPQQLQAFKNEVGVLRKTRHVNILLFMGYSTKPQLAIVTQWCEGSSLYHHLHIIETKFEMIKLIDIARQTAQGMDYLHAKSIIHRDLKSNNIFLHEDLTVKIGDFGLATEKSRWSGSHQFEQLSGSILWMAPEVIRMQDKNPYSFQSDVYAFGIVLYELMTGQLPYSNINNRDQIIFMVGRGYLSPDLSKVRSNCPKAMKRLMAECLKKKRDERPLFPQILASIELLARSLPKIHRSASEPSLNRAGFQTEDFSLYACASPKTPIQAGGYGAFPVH
# Method: Materials: The RAF kinases and the anti-phospho MEK1/2 antibody were from Upstate (Charlottesville, Va.). The RAF substrate used was full length N-terminal GST-MEK-1, which was expressed in E. coli and purified in-house by HPLC. All proteins were aliquoted and stored at −80° C. Superblock™ in phosphate buffered saline (PBS) blocking reagent was form Pierce (cat. #37515). ATP was from Roche (cat. # 19035722). Alkaline Phosphatase-tagged goat anti-rabbit antibody was from Pierce (cat. # 31340).
# Methods: All RAF biochemical assays were performed using an assay buffer containing 20 mM MOPS, 5 mM EGTA, 37.5 mM MgCl2, 1 mM DTT and 50 μM ATP. There was 6.25 ng/well mutant B-RAF and 7.5 ng/well MEK-1 in the final assay conditions. Compounds were serially diluted in assay buffer containing 1% DMSO and 20 μl of test compound at a concentration 3-fold more than the final concentration, and were added to a polypropylene V-well reaction plate. Vehicle control wells received buffer only with DMSO at equivalent concentrations to the test wells. […] These reaction plates were incubated at room temperature for 30 minutes. Capture of MEK-1 was initiated by transferring 50 μl of the reaction mixture to a Nunc Maxisorp™ microplate that is designed for non-specific protein capture. After 30 minute capture of MEK-1 at room temperature, this plate was washed with TBST (6×200 μL/well) to fully terminate the reaction. The plate was then blocked for 1 hour by the addition of 100 μl/well of Superblock™ in phosphate buffered saline (PBS) blocking reagent. Plate was again washed with TBST (6 times with 200 μl/well), followed by the addition of 70 μl/well of Upstate anti-phospho MEK ½ diluted 1:1000 in Pierce Superblock (PBS). After a 60 minute incubation, this plate was washed with TBST (6 times with 200 μl/well), and 70 μl of the secondary antibody (Pierce Alkaline Phosphatase tagged goat anti-rabbit) prepared at 1:4000 in Superblock, were added. After a 45 minute incubation at room temperature, the wells of the microplate were washed with TBST (6 times with 200 μl/well), and thereafter 100 μl/well of Attophos™ fluorescent alkaline phosphatase substrate was added according to the manufacturer's instructions (JBL Scientific). Fluorescence was read on a Perkin Elmer Envision multilabel reader, using the following filters: Excitation Filter: CFP430 nM, Emission Filter: Emission Filter 579 nM.
# p-Erk (A375) = test: Cell-based phosphorylation assay with electroblotting readout; design: species or system human; details: A375 cells; for EC50: Homo sapiens, A-375, 1 hr
# Source text: Compounds of the present invention have been screened for their ability to inhibit all isoforms, both wild-type and mutant of RAF kinases (A-RAF, B-RAF and C-RAF) in general, and the mutant B-RAF (V600E) in particular in human cancer cells. A375 is a human melanoma cell line that harbors the most common B-RAF mutation-V600E found in human cancers. The ability of compounds to inhibit RAF kinases in this assay is correlated with the reduction of MEK and ERK phosphorylation, and is therefore a direct indicator of potential in vivo therapeutic activity.
# Materials: A375 cells from ATCC were maintained at 37° C., 5% CO2 in DMEM media supplemented with 10% fetal bovine serum, penicillin/streptomycin and fungizone. (Invitrogen)
# Methods: Test compounds were dissolved and diluted 1:1000 in DMSO. A375 cells were seeded in six-well tissue culture plates at 5-8×10^5 per well and cultured at 37° C. for 24 h. Cells were incubated with compounds for one hour before being lysed in EPage™ loading buffer (Invitrogen). Lysates were electrophoresed on 8% EPage™ gels and transferred to polyvinylidene difluoride membranes. After incubations with primary and secondary antibodies, the immunostained proteins were detected and quantitated by an Odyssey infrared imager (LI-COR). Analysis was performed by non-linear regression to generate a dose response curve. The calculated IC50 value was the concentration of the test compound that causes a 50% decrease in phospho-MEK and phospho-ERK levels. The primary antibodies used were anti-MEK (Stressgen), anti-ERK (BD Biosciences), anti-phospho-ERK and anti-phospho-MEK (Cell Signaling). The secondary antibodies used were IRDYE800 anti-rabbit, IRDYE 800 anti-mouse (Rockland), AlexaFluor680 anti-mouse and AlexaFluoro680 anti-rabbit (Invitrogen).
# A375 cells were treated with 0, 12, 37, 111, 333 and 1000 nM of indicated compounds for 1 hr. The levels of Phospho-ERK and total-ERK were accessed by immunoblotting.
# [1] = 50 μM ATP, MEK-1 substrate, read-out: Mut-B-Raf IC50
SMILES,IC50 (mutant B-RAF; [1]),EC50 (p-Erk (A375)),IC50 (mutant B-RAF),increase in IC50 relative to compound 14 (mutant B-RAF),deviation in EC50 (cell-based ERK inhibition) relative to compound 14 (p-Erk (A375))
"O=S(=O)(c1ccc(Cl)cc1)N1CCC[C@@H](Nc2nccc(-c3c(-c4cccc(O)c4)nc4sccn34)n2)C1 [Compound 1, (R)-3-(5-(2-(1-(4-chlorophenylsulfonyl)piperidin-3-ylamino)pyrimidin-4-yl)imidazo[2,1-b]thiazol-6-yl)phenol]",6 nM,11 nM,,,
"O=P(O)(O)Oc1cccc(-c2nc3sccn3c2-c2ccnc(N[C@@H]3CCCN(S(=O)(=O)c4ccc(Cl)cc4)C3)n2)c1 [Compound 2, (R)-3-(5-(2-(1-(4-chlorophenylsulfonyl)piperidin-3-ylamino)pyrimidin-4-yl)imidazo[2,1-b]thiazol-6-yl)phenyl dihydrogen phosphate]",,260 nM,1900 nM,,
"O=P(O)(O)OCOc1cccc(-c2nc3sccn3c2-c2ccnc(N[C@@H]3CCCN(S(=O)(=O)c4ccc(Cl)cc4)C3)n2)c1 [Compound 3, (R)-(3-(5-(2-(1-(4-chlorophenylsulfonyl)piperidin-3-ylamino)pyrimidin-4-yl)imidazo[2,1-b]thiazol-6-yl)phenoxy)methyl dihydrogen phosphate]",375 nM,71 nM,,,
"O=P(O)(O)Oc1cccc(-c2nc3occn3c2-c2ccnc(N[C@@H]3CCCN(S(=O)(=O)c4ccc(Cl)cc4)C3)n2)c1 [Compound 5, (R)-3-(5-(2-(1-(4-chlorophenylsulfonyl)piperidin-3-ylamino)pyrimidin-4-yl)imidazo[2,1-b]oxazol-6-yl)phenyl dihydrogen phosphate]",,127 nM,1900 nM,,
"O=P(O)(O)Oc1cccc(-c2nc3occn3c2-c2ccnc(NC3CCN(S(=O)(=O)c4ccc(F)cc4)CC3)n2)c1 [Compound 10, 3-(5-(2-(1-(4-fluorophenylsulfonyl)piperidin-4-ylamino)pyrimidin-4-yl)imidazo[2,1-b]oxazol-6-yl)phenyl dihydrogen phosphate]",,88 nM,1170 nM,,
"O=P(O)(O)Oc1cccc(-c2nc3occn3c2-c2ccnc(NC3CCN(S(=O)(=O)C4CC4)CC3)n2)c1 [Compound 12, 3-(5-(2-(1-(cyclopropylsulfonyl)piperidin-4-ylamino)pyrimidin-4-yl)imidazo[2,1-b]oxazol-6-yl)phenyl dihydrogen phosphate]",,177 nM,> 3300 nM,,
"Cn1ccc(S(=O)(=O)N2CCC[C@@H](Nc3nccc(-c4c(-c5cccc(OP(=O)(O)O)c5)nc5sccn45)n3)C2)n1 [Compound 15, (R)-3-(5-(2-(1-(1-methyl-1H-pyrazol-3-ylsulfonyl)piperidin-3-ylamino)pyrimidin-4-yl)imidazo[2,1-b]thiazol-6-yl)phenyl dihydrogen phosphate]",,8 nM,2410 nM,~400 fold,about 2 fold
"Cn1ccc(S(=O)(=O)N2CCC[C@@H](Nc3nccc(-c4c(-c5cccc(OCOP(=O)(O)O)c5)nc5sccn45)n3)C2)n1 [Compound 16, (R)-(3-(5-(2-(1-(1-methyl-1H-pyrazol-3-ylsulfonyl)piperidin-3-ylmino)pyrimidin-4-yl)imidazo[2,1-b]thiazol-6-yl)phenoxy)methyl dihydrogen phosphate]",1160 nM,4 nM,,~193 fold,~4 fold
"Cn1ccc(S(=O)(=O)N2CCC[C@@H](Nc3nccc(-c4c(-c5cccc(OP(=O)(O)O)c5)nc5occn45)n3)C2)n1 [Compound 18, (R)-3-(5-(2-(1-(1-methyl-1H-pyrazol-3-ylsulfonyl)piperidin-3-ylamino)pyrimidin-4-yl)imidazo[2,1-b]oxazol-6-yl)phenyl dihydrogen phosphate]",,87 nM,> 3300 nM,,
"Cn1ccc(S(=O)(=O)N2CCC[C@@H](Nc3nccc(-c4c(-c5ccc(F)c(OP(=O)(O)O)c5)nc5occn45)n3)C2)n1 [Compound 23, (R)-2-fluoro-5-(5-(2-(1-(1-methyl-1H-pyrazol-3-ylsulfonyl)piperidin-3-ylamino)pyrimidin-4-yl)imidazo[2,1-b]oxazol-6-yl)phenyl dihydrogen phosphate]",,9 nM,1050 nM,,

# More lines, main results first:
IC50 (mutant B-RAF; [1]),EC50 (p-Erk (A375)),SMILES,IC50 (mutant B-RAF),increase in IC50 relative to compound 14 (mutant B-RAF),deviation in EC50 (cell-based ERK inhibition) relative to compound 14 (p-Erk (A375))
1410 nM,12 nM,"O=P(O)(O)OCOc1cccc(-c2nc3occn3c2-c2ccnc(N[C@@H]3CCCN(S(=O)(=O)c4ccc(Cl)cc4)C3)n2)c1 [Compound 6, (R)-(3-(5-(2-(1-(4-chlorophenylsulfonyl)piperidin-3-ylamino)pyrimidin-4-yl)imidazo[2,1-b]oxazol-6-yl)phenoxy)methyl dihydrogen phosphate]",,,
405 nM,938 nM,"O=P(O)(O)OCOc1cccc(-c2nc3sccn3c2-c2ccnc(NC3CCN(S(=O)(=O)c4ccc(Cl)cc4)CC3)n2)c1 [Compound 8, (3-(5-(2-(1-(4-chlorophenylsulfonyl)piperidin-4-ylamino)pyrimidin-4-yl)imidazo[2,1-b]thiazol-6-yl)phenoxy)methyl dihydrogen phosphate]",,,
> 3300 nM,161 nM,"O=P(O)(O)OCOc1cccc(-c2nc3occn3c2-c2ccnc(NC3CCN(S(=O)(=O)C4CC4)CC3)n2)c1 [Compound 13, (3-(5-(2-(1-(cyclopropylsulfonyl)piperidin-4-ylamino)pyrimidin-4-yl)imidazo[2,1-b]oxazol-6-yl)phenoxy)methyl dihydrogen phosphate]",,,
1160 nM,141 nM,"Cn1ccc(S(=O)(=O)N2CCC(Nc3nccc(-c4c(-c5cccc(OCOP(=O)(O)O)c5)nc5occn45)n3)CC2)n1 [Compound 21, (3-(5-(2-(1-(1-methyl-1H-pyrazol-3-ylsulfonyl)piperidin-4-ylamino)pyrimidin-4-yl)imidazo[2,1-b]oxazol-6-yl)phenoxy)methyl dihydrogen phosphate]",,,
28 nM,52 nM,"Cn1ccc(S(=O)(=O)N2CCC[C@@H](Nc3nccc(-c4c(-c5ccc(F)c(OCOP(=O)(O)O)c5)nc5occn45)n3)C2)n1 [Compound 24, (R)-(2-fluoro-5-(5-(2-(1-(1-methyl-1H-pyrazol-3-ylsulfonyl)piperidin-3-ylamino)pyrimidin-4-yl)imidazo[2,1-b]oxazol-6-yl)phenoxy)methyl dihydrogen phosphate]",,,
